Measured values from PMC7478165, “Derivatisation of parthenolide to address chemoresistant chronic lymphocytic leukaemia” (MedChemComm, 2019).

How the values were obtained:
MEC1 CLL cell line [1] = assay: alamarBlue assay, in vitro antileukaemic activity against MEC1 CLL cell line; assay type: cell-based; conditions: for LipE pEC50–clog P: MEC1 cell line pEC50 minus calculated log P
Text: Defective p53-signalling increases genomic instability and drives tumour progression. A high frequency of p53 inactivation is found in relapsed, treatment-resistant, high risk CLL.[30] […] Owing to resource availability a subset of up to ten of these compounds was prioritised for further investigation. Compounds 2d, 2e, 2j, 2aa, 5a, 5d, 5e, 5f, 5ab and 6b were selected on the basis of reasons including ease of synthetic access, diversity across the chemical space probed and novelty. Those prepared under conditions (i)Scheme 1 (2d, 5a and 6b) were available on a scale and in a purity to directly permit follow-up studies, whereas compounds prepared under conditions (ii)Scheme 1 were prepared on a small scale so were resynthesised. These seven compounds (2e, 2j, 2aa, 5d, 5e, 5f and 5ab) were isolated on >30 mg scale in high purity and progressed to more following studies.
Following the identification of 5f as the most promising drug-like derivative of PTL from the aforementioned parallel/high-throughput screening, the anti-leukaemic activity of 5f was tested once more and compared directly with that of PTL (1) and DMAPT (2a), which serve as comparators and positive controls.
Amine 7 was successfully prepared as follows: 4-Piperidinecarboxylic acid was N-Boc protected to deliver 8 in 92% yield.[43] In order to confidently assign the NMR spectra of compound 8 J-MOD, HSQC and ^1H–^1H COSY were helpful, particularly in establishing that a broad resonance in the proton-decoupled ^13C NMR spectrum, centred on 42.8 ppm, corresponds to the ring-carbons bonded to nitrogen. The carboxylic acid of 8 was converted to the corresponding ethyl-3-keto-propanoate 9 in 24% yield. Conversion of 9 to the N-Boc protected congener 10, was achieved by treatment with acetamidine hydrochloride and potassium carbonate, furnishing 10 in 77% yield. Treatment with trifluoroacetic acid delivered desired compound 7 in 99% yield for the Boc-deprotection step (scale 200 mg, 17% over four linear steps). Thus, evidencing accessibility of amine 7 and with it in hand, it was timely to probe any activity arising from the amine alone. MEC1 sensitivity to 1, 5f and 7 was compared in parallel using the alamarBlue® assay (Fig. 6). […] A pre-peer-reviewed preprint of this article was deposited and may be viewed elsewhere.[44]

[2] = Stability in aqueous solution, pH 7.4; assay type: physicochemical; conditions: for half-life: pH 7.4, read-out: Stability pH 7.4 T1/2; for stability in aqueous solution: result in words
Experimental: Compounds 2d, 2e, 2f, 2g, 2j, 2aa, 5a, 5d, 5e, 5f, 5ab and 6b were subjected to in vitro DMPK testing. […] The other three (2d, 2j and 2aa) were not retained for further investigation due to poor stability (T1/2 at pH 7.4: 13, 107 and 76 min, Table 1, entries 1, 3 and 4 respectively). One obvious aspect contributing to observed stability is the propensity for PTL derivatives of this type to undergo a retro-amination (reverse-Michael-type mechanism), indeed this reverse reaction is often claimed as a pro-drug mode of action.[29a],[33] […] It is a reasonable assertion that activity observed for these unstable compounds could well be ascribed to free PTL generated rapidly in the assay.

[3] = Hepatocyte stability assay (mouse); assay type: in vitro ADME; conditions: mouse hepatocytes; for half-life: read-out: Hepatocyte stability (mouse) T1/2
[4] = Caco-2 permeability assay; assay type: in vitro ADME; conditions: for efflux ratio / Papp A→B / Papp B→A: human; for efflux ratio: Caco-2, pH 7.4; for Papp A→B / Papp B→A: Caco-2; for Papp A→B: pH 7.4, A to B; for Papp B→A: pH 7.4, B to A
[5] = Microsomal stability assay (mouse); conditions: for Mouse microsomal stability: mouse microsomes; for microsomal CLint: mouse, liver microsomes
[6] = Murine intravenous PK study; assay type: in vivo; conditions: IV 1 mg kg^–1; for clearance / half-life / Vd: blood, mouse; for clearance: read-out: Mouse PK (IV) Cl; for half-life: read-out: Mouse PK (IV) T1/2 (converted); for Vd: read-out: Mouse PK (IV) VSS
Experimental: In order to determine 5a and 5f are suitable for use as pharmaceutical agents their pharmacokinetic (PK) parameters were next probed. A murine intravenous PK study of compounds 5a and 5f at 1.0 mg kg^–1 was conducted and their concentrations in blood were measured with time (Fig. 4(a)i and (b)i and Table 2).

[7] = Murine oral (PO) PK study; assay type: in vivo; conditions: for Cmax / Tmax / bioavailability / half-life: in vivo, mouse; for bioavailability: read-out: Mouse PK (PO) F%; for half-life: PO 10 mg kg^–1, as worded in text
Experimental: The in vivo oral bioavailability of compounds 5a and 5f was compared in a murine PK study at 10 mg kg^–1 (Fig. 4(a)ii and (b)ii and Table 2). In keeping with the intravenous findings, the murine PO half-life of 5f was twice as long as 5a (1.0 versus 0.5 hours, Table 2) and the Cmax attained by 5f was approximately 40% higher than that achieved by 5a (404 versus 283 ng mL^–1). […] Compound 5f was therefore identified as a promising potential new agent with desirable pharmacological properties towards a therapy for drug-resistant CLL.

hERG K+ channel = hERG K+ channel (Homo sapiens, UniProt Q12809); assay: hERG liability assay, IonWorks patch clamp electrophysiology; assay type: cell-based; conditions: for IC50: eight-point curves, maximum test concentration 100 μM; for inhibition at 100 µM: read-out: hERG inhibition at top test concentration
Chain of hERG K+ channel (Q12809 whole entry): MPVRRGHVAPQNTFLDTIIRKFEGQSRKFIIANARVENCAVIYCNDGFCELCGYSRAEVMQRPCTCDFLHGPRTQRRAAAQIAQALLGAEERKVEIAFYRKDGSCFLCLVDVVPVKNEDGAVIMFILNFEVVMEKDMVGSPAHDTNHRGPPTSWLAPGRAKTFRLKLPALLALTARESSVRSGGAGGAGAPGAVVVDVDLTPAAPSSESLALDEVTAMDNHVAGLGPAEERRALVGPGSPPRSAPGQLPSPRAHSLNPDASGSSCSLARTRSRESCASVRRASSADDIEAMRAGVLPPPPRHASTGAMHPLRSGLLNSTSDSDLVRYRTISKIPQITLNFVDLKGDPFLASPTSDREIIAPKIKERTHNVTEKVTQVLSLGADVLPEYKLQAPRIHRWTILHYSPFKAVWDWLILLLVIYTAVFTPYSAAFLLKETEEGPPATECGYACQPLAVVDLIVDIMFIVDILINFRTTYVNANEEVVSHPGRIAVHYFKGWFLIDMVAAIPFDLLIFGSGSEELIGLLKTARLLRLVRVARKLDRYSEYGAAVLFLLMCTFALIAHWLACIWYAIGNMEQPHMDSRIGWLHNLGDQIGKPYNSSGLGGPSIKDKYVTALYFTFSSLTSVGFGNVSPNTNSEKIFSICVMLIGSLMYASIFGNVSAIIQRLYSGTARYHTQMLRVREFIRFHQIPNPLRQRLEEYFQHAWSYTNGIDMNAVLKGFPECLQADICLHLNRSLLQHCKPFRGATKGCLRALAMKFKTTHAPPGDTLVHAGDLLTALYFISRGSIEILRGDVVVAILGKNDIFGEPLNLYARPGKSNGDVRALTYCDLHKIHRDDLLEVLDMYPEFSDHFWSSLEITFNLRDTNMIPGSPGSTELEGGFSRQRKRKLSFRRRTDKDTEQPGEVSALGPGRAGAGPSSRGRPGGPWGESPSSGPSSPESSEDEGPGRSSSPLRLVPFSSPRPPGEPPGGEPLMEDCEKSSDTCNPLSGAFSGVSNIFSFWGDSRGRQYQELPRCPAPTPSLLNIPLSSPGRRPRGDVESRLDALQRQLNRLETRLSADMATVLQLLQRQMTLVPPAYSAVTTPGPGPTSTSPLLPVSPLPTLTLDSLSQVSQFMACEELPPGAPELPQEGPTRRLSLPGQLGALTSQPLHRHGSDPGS
Experimental: Early toxicological screening is an important step in derisking drug discovery programmes and is increasingly accessible.[39]
Three PTL derivatives (2a, 5a and 5f) were tested for inhibition of the hERG K^+ channel (against cisapride as a positive control) using IonWorks patch clamp electrophysiology. […] Eight-point concentration-response curves were generated using three-fold serial dilutions from a maximum final test concentration of 100 μM, results are summarised in Fig. S6. ^†

in vitro = conditions: mouse, microsomes
MEC1 CLL cell line [8] = assay: cells; design: alamarBlue (resazurin reduction) cytotoxicity assay in MEC1 CLL cells, n = 5; conditions: Homo sapiens, read-out: alamarBlue EC50 (uM) average n=5
Experimental: Comparison of the activity of 5f with 1 (PTL) and 2a (DMAPT) Biological efforts at University of Birmingham Tissue culture, MEC1 cells were obtained from the American Type Culture Collection (Manassas, VA 20110 USA) and were cultured in RPMI 1640 medium (Sigma-Aldrich, Irvine, UK) with 10% fetal bovine serum (Sigma-Aldrich). The alamarBlue® cytotoxicity assay was conducted by seeding MEC1 cells in triplicate at density of 25000 cells/well in a 96 well plate, final volume of 200 μL. Following treatment with test compound, viability was determined by measuring the reduction of resazurin. Resazurin solution was added to each well at a final concentration of 50 μg/mL and incubated for 3 hours at 37 °C with 5% CO2. Reduction of resazurin was determined by measuring […] at 590 nm using a PheraSTAR FS plate reader (BMG Labtech). Cell viability was calculated as a fraction of the untreated cells after subtracting background fluorescence of resazurin in media only. Data is presented as the mean of five independent experiments and significance was determined by Student’s t-test.

[9] = Homo sapiens, MEC1, MEC1 cell line, alamarBlue assay, library screen, read-out: EC50 ave.
[10] = first of two columns headed A to B
[11] = second of two columns headed A to B
[12] = MEC1 cell line, alamarBlue assay, library screen, read-out: EC50 ave.
[13] = Homo sapiens, MEC1, MEC1 cell line, read-out: pEC50 (converted)
[14] = Homo sapiens, MEC1, MEC1 cells, alamarBlue, direct comparison of 5f with PTL and DMAPT, n = 5, read-out: EC50

SMILES	EC50 (MEC1 CLL cell line [1]; [9]) [µM]	LipE pEC50–clog P (MEC1 CLL cell line [1])	half-life [2] [h]	Hepatocyte stability (mouse) CLint [3]	half-life [3] [h]	efflux ratio [4]	Papp A→B [4] [×10⁻⁶ cm/s]	Papp B→A [4] [×10⁻⁶ cm/s]	Mouse microsomal stability [5, 10]	Mouse microsomal stability [5, 11]	EC50 (MEC1 CLL cell line [1]; [12]) [µM]	Mouse PK (IV) UC (0-inf) [6] [ng h mL^–1]	clearance [6] [mL/min/kg]	half-life [6] [h]	Mouse PK (PO) UC (0-inf) ([7]; PO 10 mg kg^–1) [ng h mL^–1]	Cmax ([7]; PO 10 mg kg^–1) [ng/mL]	inhibition at 100 µM (hERG K+ channel; human) [%]	further results
C/C1=C\CC[C@@]2(C)O[C@@H]2[C@H]2OC(=O)[C@@H](CN3CCCC3)[C@@H]2CC1 [C00005]	7.7	2.35	> 2	22.0 μL min^–1 per million cells	1.08	1	15.9	16.2	19	75	–	–	–	–	–	–	–	–
C/C1=C\CC[C@@]2(C)O[C@@H]2[C@H]2OC(=O)[C@@H](CN3CCC(c4cc(O)nc(C)n4)CC3)[C@@H]2CC1 [C00008]	–	3.69	> 2	22.0 μL min^–1 per million cells	1.07	–	2.7	2.8	18	77	7.7	–	–	–	–	–	–	Caco-2 pH 7.4 Efflux ratio [4]: 1.1
C/C1=C\CC[C@@]2(C)O[C@@H]2[C@H]2OC(=O)[C@@H](CN[C@@H](Cc3ccccc3)C(=O)O)[C@@H]2CC1 [C00010]	–	3.66	> 2	16.0 μL min^–1 per million cells	1.47	–	1.5	4.2	9	160	13.5	–	–	–	–	–	–	Caco-2 pH 7.4 Efflux ratio [4]: 2.7
C/C1=C\CC[C@@]2(C)O[C@@H]2[C@H]2OC(=O)[C@@H](CN3CCCC3)[C@@H]2CC1 [C00011]	–	–	–	–	–	–	–	–	–	–	–	80.5	207	0.66	711	283	–	Vd [6]: 11.6 L/kg; Tmax ([7]; PO 10 mg kg^–1): 0.5 h; bioavailability ([7]; PO 10 mg kg^–1): 95.8%
C/C1=C\CC[C@@]2(C)O[C@@H]2[C@H]2OC(=O)[C@@H](CN3CCC(c4cc(O)nc(C)n4)CC3)[C@@H]2CC1 [C00012]	–	–	–	–	–	–	–	–	–	–	7.7	289	–	–	1696	–	–	Mouse PK (IV) Cl [6]: 58 mL min^–1 kg^–1; Mouse PK (IV) T1/2 [6]: 1.14 h; Vd [6]: 4.62 L/kg; Mouse PK (PO) Cmax ([7]; PO 10 mg kg^–1): 404 ng mL^–1; Tmax ([7]; PO 10 mg kg^–1): 1 h; bioavailability ([7]; PO 10 mg kg^–1): 58.5%
CC1=CCCC2(C)OC2C2OC(=O)C(CN3CCCC3)C2CC1 (stereo not shown) [Compound 5a]	< 15	2.35	–	–	–	1	–	–	–	–	7.7	80.5	207	0.66	711	283	45	EC50 (MEC1 CLL cell line [1]; [13]): 7.76 µM; stability in aqueous solution [2]: greater than two hours; half-life [7]: 0.5 h; IC50 (hERG K+ channel): > 100 µM; microsomal CLint [5]: 19 µL/min/mg
C/C1=C\CC[C@@]2(C)O[C@@H]2[C@H]2OC(=O)[C@@H](CN3CCC(O)(c4ccccc4)CC3)[C@@H]2CC1 [Compound 5e]	–	–	–	–	–	–	–	–	–	–	< 15	–	–	–	–	–	–	microsomal CLint (in vitro): > 100 µL/min/mg
C/C1=C\CC[C@@]2(C)O[C@@H]2[C@H]2OC(=O)[C@@H](CN3CCC(c4cc(O)nc(C)n4)CC3)[C@@H]2CC1 [Compound 5f]	< 15	3.69	–	–	–	1.1	–	–	–	–	7.7	289	58	1.14	1696	404	24	EC50 (MEC1 CLL cell line [1]; [13]): 7.76 µM; EC50 (MEC1 CLL cell line [1]; Homo sapiens, MEC1, MEC1 cells, alamarBlue, 1, 5f and 7 compared in parallel, CalcuSyn, read-out: EC50): 4.3 µM; EC50 (MEC1 CLL cell line [1]; [14]): 4.5 µM; effect of NAC pre-treatment on activity (MEC1 CLL cell line [1]; MEC1 cells, pre-treatment with N-acetylcysteine (NAC)): abrogated activity; stability in aqueous solution [2]: greater than two hours; half-life [7]: 1 h; hERG liability flag (hERG K+ channel): inactive; IC50 (hERG K+ channel; human): > 100 µM; microsomal CLint [5]: 18 µL/min/mg
C/C1=C\CC[C@@]2(C)O[C@@H]2[C@H]2OC(=O)[C@@H](CN(C)C)[C@@H]2CC1 [DMAPT, dimethyl amino-PTL, reference compound]	–	3.19	–	–	–	–	–	–	–	–	–	–	–	–	–	–	40	EC50 (MEC1 CLL cell line [1]; [14]): 5.6 µM; IC50 (hERG K+ channel): > 100 µM
C/C1=C\CC[C@@]2(C)O[C@@H]2[C@H]2OC(=O)[C@@H](CN(C)C)[C@@H]2CC1 [DMAPT, dimethyl amino-PTL]	–	–	–	–	–	–	–	–	–	–	–	–	–	–	–	–	–	EC50 (MEC1 CLL cell line [8]): 5.3 µM
